Read-outs that look alike come from different tables or passages of the source.
Tests used:
Assay type in all cases: cell-based
K562 cell line = test: CCK-8 anti-proliferative assay, K562; details: Homo sapiens, 72 h, K562, culture for 3 days
Method: CCK-8 assay (cell counting kit-8 assay, Dojindo, Kumamoto, Japan) was performed. The K562 cell line was cultured in RPMI medium supplemented with 10% FBS and 1% ABAM at 37° C. in the presence of 5% CO2. Cells were treated with test compounds at concentrations of 0 μM, 1.25 μM, 2.5 μM, 5 μM, 10 μM, and 20 μM, respectively. After culture for 3 days, 10 μL of CCK-8 solution was treated and cultured for 4 hours. Subsequently, the absorbance was measured at 450 nm to obtain the IC50 value of each compound.
The experimental values for the K562 cell line are identical to biological Example 2.

[1] = test system: PBMC (peripheral blood monocyte cells isolated from normal donors); test: CCK-8 assay, PBMC (normal cells); details: for IC50: 72 h, PBMC normal cells, culture for 3 days, CCK-8, tested 0-20 μM; for SI (selectivity index): K562 cells compared to PBMC
Method: PBMC (peripheral blood monocyte cells isolated from normal donors) cell lines were dispensed in RPMI medium supplemented with 10% FBS and 1% ABAM at 37° C. in the presence of 5% CO2, and then the test compounds were treated at concentrations of 0 μM, 1.25 μM, 2.5 μM, 5 μM, 10 μM, and 20 μM, respectively. After culture for 3 days, 10 μL of CCK-8 solution was treated and cultured for 4 hours. Subsequently, the absorbance at 450 nm was measured to obtain the IC50 value of each compound.

Phospho-eIF2α (Ser51) = Phospho-eIF2α (Ser51) Sandwich ELISA in K562 cells; details: Homo sapiens, K562, 6 h, serum-free RPMI, 10 μM compound, control = 1, read-out: eIF2α phosphorylation, absorbance standardized to control (DMSO-treated) set to 1, at 10 μM
Method: Pathscan Phospho-eIF2α (Ser51) Sandwich ELISA Kit #7286 from Cell signaling was used. The K562 cell line was cultured in serum-free RPMI medium at 37° C. in the presence of 5% CO2. Cells were treated with test compounds at a concentration of 10 μM. Six hours after compound treatment, the cells were lysed with a lysis buffer included in the kit to obtain 50 μg of protein by quantification. Afterwards, ELISA assay was performed according to the manufacturer's protocol to obtain absorbance. The absorbance for each obtained compound was standardized to a value of which the control (DMSO-treated) is set to 1.

[2] = CCK-8, Table 3 (identical to Example 2), tested 0-20 μM, read-out: IC50 K562

`CC(C)(C)c1cccc(Nc2c(N[C@H]3CC[C@H](Oc4ccc(C(F)(F)F)cc4)CC3)c(=O)c2=O)c1` [Compound 28, 3-((3-(tert-Butyl)phenyl)amino)-4-(((1,4-trans)-4-(4-(trifluoromethyl)phenoxy)cyclohexyl)amino)cyclobut-3-ene-1,2-dione] gave an IC50 (K562 cell line; CCK-8, Table 2, read-out: IC50) of 6.8 µM, an IC50 (K562 cell line; [2]) of 6.8 µM and an IC50 [1] of 19.4 µM. For the same compound, the “SI (selectivity index)” value [1] was 2.86.

`CC(C)(C)c1cccc(Nc2c(N[C@H]3CC[C@H](Oc4ccc(S(C)(=O)=O)cc4)CC3)c(=O)c2=O)c1` [Compound 31, 3-((3-(tert-Butyl)phenyl)amino)-4-(((1,4-trans)-4-(4-(methylsulfonyl)phenoxy)cyclohexyl)amino)cyclobut-3-ene-1,2-dione] showed an IC50 (K562 cell line; CCK-8, Table 2, read-out: IC50) of 5.69 µM, an IC50 (K562 cell line; [2]) of 5.69 µM and an activity at 10 µM (Phospho-eIF2α (Ser51)) of 150%. For the same compound, the IC50 [1] was 35.1 µM and the “SI (selectivity index)” value [1] was 6.10.

`N#Cc1ccc(O[C@H]2CC[C@H](Nc3c(Nc4cc(C#N)cc(C(F)(F)F)c4)c(=O)c3=O)CC2)cc1` [Compound 84, 3-((2-(((1,4-trans)-4-(4-Cyanophenoxy)cyclohexyl)amino)-3,4-dioxocyclobut-1-en-1-yl)amino)-5-(trifluoromethyl)benzonitrile] was tested, and the IC50 (K562 cell line; CCK-8, Table 2, read-out: IC50) was 10.1 µM, the IC50 (K562 cell line; [2]) was 10.1 µM and the activity at 10 µM (Phospho-eIF2α (Ser51)) was 143%. The IC50 [1] was 29.4 µM and the “SI (selectivity index)” value [1] was 2.26.

`O=c1c(Nc2cccc(Cl)c2)c(N[C@H]2CC[C@H](Oc3ccc([N+](=O)[O-])cc3)CC2)c1=O` [Compound 20, 3-((3-Chlorophenyl)amino)-4-(((1,4-trans)-4-(4-nitrophenoxy)cyclohexyl)amino)cyclobut-3-ene-1,2-dione] showed an IC50 (K562 cell line; CCK-8, Table 2, read-out: IC50) of 16.1 µM, an IC50 (K562 cell line; [2]) of 16.1 µM and an activity at 10 µM (Phospho-eIF2α (Ser51)) of 190%. The IC50 [1] was 20 µM and the “SI (selectivity index)” value [1] was 1.40.

In the case of `N#Cc1cc(Nc2c(N[C@H]3CC[C@H](Oc4ccc(C(F)(F)F)cc4)CC3)c(=O)c2=O)cc(C(F)(F)F)c1` [Compound 83, 3-((3,4-Dioxo-2-(((1,4-trans)-4-(4-(trifluoromethyl)phenoxy)cyclohexyl)amino)cyclobut-1-en-1-yl)amino)-5-(trifluoromethyl)benzonitrile], the IC50 (K562 cell line; CCK-8, Table 2, read-out: IC50) is reported as 4 µM, the IC50 (K562 cell line; [2]) is reported as 4 µM and the activity at 10 µM (Phospho-eIF2α (Ser51)) is reported as 184%. For the same compound, the IC50 [1] was 19.3 µM and the “SI (selectivity index)” value [1] was 4.46.

With `CS(=O)(=O)c1ccc(O[C@H]2CC[C@H](Nc3c(Nc4cccc(C(F)(F)F)c4)c(=O)c3=O)CC2)cc1` [Compound 26, 3-(((1,4-trans)-4-(4-(Methylsulfonyl)phenoxy)cyclohexyl)amino)-4-((3-(trifluoromethyl)phenyl)amino)cyclobut-3-ene-1,2-dione] the IC50 (K562 cell line; CCK-8, Table 2, read-out: IC50) was greater than 20 µM and the activity at 10 µM (Phospho-eIF2α (Ser51)) was 133%.

Work on `CC(C)(C)c1cccc(Nc2c(N[C@H]3CC[C@H](Oc4ccc(C#N)cc4)CC3)c(=O)c2=O)c1` [Compound 29, 4-(((1,4-trans)-4-((2-((3-(tert-Butyl)phenyl)amino)-3,4-dioxocyclobut-1-en-1-yl)amino)cyclohexyl)oxy)benzonitrile] yielded an IC50 (K562 cell line; CCK-8, Table 2, read-out: IC50) of 4.09 µM, an IC50 (K562 cell line; [2]) of 4.09 µM and an activity at 10 µM (Phospho-eIF2α (Ser51)) of 176%. For the same compound, the IC50 [1] was 17 µM and the “SI (selectivity index)” value [1] was 3.82.

In the case of `CS(=O)(=O)c1ccc(O[C@H]2CC[C@H](Nc3c(Nc4cc(C#N)cc(C(F)(F)F)c4)c(=O)c3=O)CC2)cc1` [Compound 86, 3-((2-(((1,4-trans)-4-(4-(Methylsulfonyl)phenoxy)cyclohexyl)amino)-3,4-dioxocyclobut-1-en-1-yl)amino)-5-(trifluoromethyl)benzonitrile], the IC50 (K562 cell line; CCK-8, Table 2, read-out: IC50) is reported as 14.2 µM, the IC50 (K562 cell line; [2]) is reported as 14.2 µM and the activity at 10 µM (Phospho-eIF2α (Ser51)) is reported as 168%. The IC50 [1] was 21 µM and the “SI (selectivity index)” value [1] was 1.31.

Work on `O=c1c(Nc2ccccc2C(F)(F)F)c(N[C@H]2CC[C@H](Oc3ccc(C(F)(F)F)cc3)CC2)c1=O` [Compound 70, 3-(((1,4-trans)-4-(4-(Trifluoromethyl)phenoxy)cyclohexyl)amino)-4-((2-(trifluoromethyl)phenyl)amino)cyclobut-3-ene-1,2-dione] yielded an IC50 (K562 cell line; CCK-8, Table 2, read-out: IC50) greater than 20 µM and an activity at 10 µM (Phospho-eIF2α (Ser51)) of 194%.

In the case of `N#Cc1ccc(O[C@H]2CC[C@H](Nc3c(Nc4cccc(Cl)c4)c(=O)c3=O)CC2)cc1` [Compound 19, 4-(((1,4-trans)-4-((2-((3-Chlorophenyl)amino)-3,4-dioxocyclobut-1-en-1-yl)amino)cyclohexyl)oxy)benzonitrile], the IC50 (K562 cell line; CCK-8, Table 2, read-out: IC50) is reported as greater than 20 µM and the activity at 10 µM (Phospho-eIF2α (Ser51)) is reported as 111%.

With `O=c1c(Nc2cccc(C(F)(F)F)c2)c(N[C@H]2CC[C@H](Oc3ccc(C(F)(F)F)cc3)CC2)c1=O` [Compound 23, 3-(((1,4-trans)-4-(4-(Trifluoromethyl)phenoxy)cyclohexyl)amino)-4-((3-(trifluoromethyl)phenyl)amino)cyclobut-3-ene-1,2-dione] the IC50 (K562 cell line; CCK-8, Table 2, read-out: IC50) was 3.96 µM, the IC50 (K562 cell line; [2]) was 3.96 µM and the activity at 10 µM (Phospho-eIF2α (Ser51)) was 201%. The IC50 [1] was 10.8 µM and the “SI (selectivity index)” value [1] was 2.77.

In the case of `O=c1c(Nc2cccc(C(F)(F)F)c2)c(N[C@H]2CC[C@H](Oc3ccc([N+](=O)[O-])cc3)CC2)c1=O` [Compound 25, 3-(((1,4-trans)-4-(4-Nitrophenoxy)cyclohexyl)amino)-4-((3-(trifluoromethyl)phenyl)amino)cyclobut-3-ene-1,2-dione], the IC50 (K562 cell line; CCK-8, Table 2, read-out: IC50) is reported as 12.2 µM, the IC50 (K562 cell line; [2]) is reported as 12.2 µM and the activity at 10 µM (Phospho-eIF2α (Ser51)) is reported as 140%. The IC50 [1] was 16 µM and the “SI (selectivity index)” value [1] was 1.27.

`CC(C)(C)c1cccc(Nc2c(N[C@H]3CC[C@H](Oc4ccc([N+](=O)[O-])cc4)CC3)c(=O)c2=O)c1` [Compound 30, 3-((3-(tert-Butyl)phenyl)amino)-4-(((1,4-trans)-4-(4-nitrophenoxy)cyclohexyl)amino)cyclobut-3-ene-1,2-dione] was tested, and the IC50 (K562 cell line; CCK-8, Table 2, read-out: IC50) was 5.09 µM, the IC50 (K562 cell line; [2]) was 5.09 µM and the activity at 10 µM (Phospho-eIF2α (Ser51)) was 112%. The IC50 [1] was 12.8 µM and the “SI (selectivity index)” value [1] was 2.61.

`N#Cc1ccc(O[C@H]2CC[C@H](Nc3c(Nc4cccc(C(F)(F)F)c4)c(=O)c3=O)CC2)cc1` [Compound 24, 4-(((1,4-trans)-4-((3,4-Dioxo-2-((3-(trifluoromethyl)phenyl)amino)cyclobut-1-en-1-yl)amino)cyclohexyl)oxy)benzonitrile] gave an IC50 (K562 cell line; CCK-8, Table 2, read-out: IC50) of 5.94 µM, an IC50 (K562 cell line; [2]) of 5.94 µM and an activity at 10 µM (Phospho-eIF2α (Ser51)) of 195%. For the same compound, the IC50 [1] was 22.5 µM and the “SI (selectivity index)” value [1] was 3.82.

Compound `CS(=O)(=O)c1ccc(O[C@H]2CC[C@H](Nc3c(Nc4ccc(C(F)(F)F)cc4)c(=O)c3=O)CC2)cc1` [Compound 49, 3-(((1,4-trans)-4-(4-(Methylsulfonyl)phenoxy)cyclohexyl)amino)-4-((4-(trifluoromethyl)phenyl)amino)cyclobut-3-ene-1,2-dione] has an IC50 (K562 cell line; CCK-8, Table 2, read-out: IC50) greater than 20 µM and an activity at 10 µM (Phospho-eIF2α (Ser51)) of 102%.

`O=c1c(Nc2ccccc2C(F)(F)F)c(N[C@H]2CC[C@H](Oc3ccc([N+](=O)[O-])cc3)CC2)c1=O` [Compound 72, 3-(((1,4-trans)-4-(4-Nitrophenoxy)cyclohexyl)amino)-4-((2-(trifluoromethyl)phenyl)amino)cyclobut-3-ene-1,2-dione] gave an IC50 (K562 cell line; CCK-8, Table 2, read-out: IC50) greater than 20 µM and an activity at 10 µM (Phospho-eIF2α (Ser51)) of 149%.

`N#Cc1cc(Nc2c(N[C@H]3CC[C@H](Oc4ccc([N+](=O)[O-])cc4)CC3)c(=O)c2=O)cc(C(F)(F)F)c1` [Compound 85, 3-((2-(((1,4-trans)-4-(4-Nitrophenoxy)cyclohexyl)amino)-3,4-dioxocyclobut-1-en-1-yl)amino)-5-(trifluoromethyl)benzonitrile] gave an IC50 (K562 cell line; CCK-8, Table 2, read-out: IC50) greater than 20 µM and an activity at 10 µM (Phospho-eIF2α (Ser51)) of 116%.
